Values after ≈ are worked out from the molar mass of the structure shown. Structures can show the parent of a compound that is named as a salt. Where two headings read alike, the source gives them in different places.
Key:
[1] = system: Klebsiella pneumoniae PCI 602; test: MIC of the infecting strain, Table 2; type: cell-based; conditions: PCI602
Experimental: (§1) The minimum growth inhibitory concentration (MIC) against various bacteria was measured in a bacterial count of 10^6 CFU/ml using medium SDA (NISSUI) in accordance with the Japan Chemotherapy Association.

Escherichia coli No. 29 [2] = test: MIC of the infecting strain, Table 2; type: cell-based
Experimental: as §1

[3] = system: Pseudomonas aeruginosa GN10362; test: MIC of the infecting strain, Table 2; type: cell-based
Experimental: as §1

Escherichia coli GN206 [4] = test: Minimum growth inhibitory concentration; type: cell-based
Experimental: as §1

[5] = system: Klebsiella pneumoniae PCI 602; test: Effect to prevent infections in mice, Test Example 6; type: in vivo, ICR strain male mice; conditions: mouse, i.p. infection 6.5 × 10^4 CFU/mouse with mucin; s.c. one hour after; 7 days
Experimental: (§2) The culture solution of each test bacterium was adjusted to a bacterial concentration shown in the table and then supplemented with 2.5% (W/V) of mucin. The solution was intraperitoneally administered to ICR strain male mice (mean body weight of 20 g, 4 weeks old) of one group being 8 at a dose of 0.5 ml to experimentally cause infection. Each test compound was subcutaneously administered one hour after (provided that in case of Pseudomonas aeruginosa was given one hour and 3 hours after). Observation was made for 7 days.

Escherichia coli GN206 [6] = test: as above; type: in vivo, ICR strain male mice; conditions: mouse, i.p. infection 9.5 × 10^6 CFU/mouse with mucin; s.c. one hour after; 7 days
Experimental: as §2

Escherichia coli No. 29 [7] = test: as above; type: in vivo, ICR strain male mice; conditions: mouse, i.p. infection 2.3 × 10^5 CFU/mouse with mucin; s.c. one hour after; 7 days
Experimental: as §2

[8] = system: Pseudomonas aeruginosa GN10362; test: as above; type: in vivo, ICR strain male mice; conditions: mouse, i.p. infection 8.8 × 10^5 CFU/mouse with mucin; s.c. one hour and 3 hours after; 7 days
Experimental: as §2

[9] = system: Bacillus subtilis ATCC6633; test: Minimum growth inhibitory concentration, Test Example 1; type: cell-based
Experimental: as §1

[10] = system: Escherichia coli W3630 RGN238; test: as above; type: cell-based; conditions: W3630RGN238, read-out: Minimum Growth Inhibitory Concentration MIC
Experimental: as §1

Escherichia coli 255/S-1 = test: as above; type: cell-based; conditions: 255/S1, 10^6 CFU/ml, medium SDA
Experimental: as §1

[11] = system: Staphylococcus epidermidis ATCC 14990; test: as above; type: cell-based
Experimental: as §1

[12] = system: Citrobacter freundii GN346; test: as above; type: cell-based
Experimental: as §1

[13] = system: Citrobacter freundii GN346/16; test: as above; type: cell-based
Experimental: as §1

Escherichia coli 255 = test: as above; type: cell-based; conditions: 10^6 CFU/ml, medium SDA
Experimental: as §1

[14] = system: Pseudomonas aeruginosa IAM-1007; test: as above; type: cell-based
Experimental: as §1

[15] = system: Staphylococcus aureus Smith (I); test: as above; type: cell-based; conditions: read-out: Minimum Growth Inhibitory Concentration MIC
Experimental: as §1

[16] = system: Escherichia coli W3630 RGN823; test: as above; type: cell-based; conditions: W3630RGN823, read-out: Minimum Growth Inhibitory Concentration MIC
Experimental: as §1

[17] = system: Pseudomonas aeruginosa M-0148; test: as above; type: cell-based
Experimental: as §1

[18] = system: Citrobacter freundii GN346/16-10; test: as above; type: cell-based; conditions: GN346, read-out: Minimum Growth Inhibitory Concentration MIC
Experimental: as §1

[19] = system: Pseudomonas aeruginosa Ml Rms139; test: as above; type: cell-based; conditions: MLRMS139, read-out: Minimum Growth Inhibitory Concentration MIC
Experimental: as §1

ICR strain male mice = test: Acute toxicity test, Test Example 5; type: in vivo; conditions: for survival: ICR male mice, 75 mg in 0.4 ml, tail vein, 14 days
Experimental: (§3) 75 mg of each test compound was dissolved in 0.4 ml of phuysiological saline. The solution was administered to the tail vein of ICR strain male mice (mean body weight of 25 g, 5 weeks old) of one group being 3 mice. Observation was made for 14 days.

[20] = Acute toxicity test, Test Example 5; type: in vivo; conditions: mouse, in vivo, iv; ICR male mice, tail vein; 14 days
Experimental: as §3

[21] = Concentration in blood plasma (rat) and in serum (common marmoset), Test Examples 7 and 8; type: in vivo, SD strain male rats; female common marmosets; conditions: various animal tests
Experimental: A test compound was dissolved in physiological saline in a concentration of 20 mg/ml. The solution was given in the tail vein of SD strain male rats (mean body weight of 325 g) of one group being 4 in a dose of 1 ml/kg. Blood was collected from the femoral artery in course of time and blood plasma was isolated from the blood. A concentration of the test compound in blood plasma was quantitatively assayed by high performance liquid chromatography. A test compound was dissolved in 0.05M phosphate buffer (pH 6.5) in a concentration of 2.0 mg/ml. The solution was intramuscularly administered to female common marmosets of one group being 2 in a dose of 5 ml/kg. Blood was collected from the femoral artery with passage of time and serum was separated from the blood followed by quantitative assay by bioassay using Escherichia coli K-12 HW 8236 as a bacterium for the assay.

[22] = system: Escherichia coli, pneumobacilli and Pseudomons aeruginosa; test: Effect to prevent infections, overall comparison with known compounds, Test Example 6; type: in vivo, ICR strain male mice; conditions: compared to the known compounds (CAZ, HR-810)
Experimental: as §2

[23] = system: clinically isolated Klebsiella pneumoniae, Proteus vulgaris and Pseudomonas aeruginosa; test: Distribution in sensitivity of clinically isolated strains, Test Examples 2 to 4; type: cell-based; conditions: compared to known compounds
Experimental: Each MIC of various bacteria clinically isolated from patients was measured in a manner similar to Test Example 1 and its percentage to the all strains to reach the inhibitory concentration was accumulatively expressed .
Distribution in sensitivity to pneumobacilli clinically isolated.
Distribution in sensitivity to variant clinically isolated.
Distribution in sensitivity to Pseudomonas aeruginosa clinically isolated.

[24] = Citrobacter freundii, GN346, read-out: Minimum Growth Inhibitory Concentration MIC
[25] = Klebsiella pneumoniae PCI 602, Table 2, read-out: MIC
[26] = Escherichia coli GN206, Table 1, 10^6 CFU/ml, medium SDA, read-out: Minimum Growth Inhibitory Concentration MIC
[27] = Bacillus subtilis ATCC6633, 10^6 CFU/ml, medium SDA, read-out: Minimum Growth Inhibitory Concentration MIC
[28] = ATCC14990, Staphylococcus epidermidis ATCC 14990, 10^6 CFU/ml, medium SDA, read-out: Minimum Growth Inhibitory Concentration MIC
[29] = Citrobacter freundii GN346, 10^6 CFU/ml, medium SDA, read-out: Minimum Growth Inhibitory Concentration MIC
[30] = Citrobacter freundii GN346/16, 10^6 CFU/ml, medium SDA, read-out: Minimum Growth Inhibitory Concentration MIC
[31] = IAM1007, Pseudomonas aeruginosa IAM-1007, 10^6 CFU/ml, medium SDA, read-out: Minimum Growth Inhibitory Concentration MIC
[32] = Staphylococcus aureus Smith (I), 10^6 CFU/ml, medium SDA
[33] = M0148, Pseudomonas aeruginosa M-0148, 10^6 CFU/ml, medium SDA, read-out: Minimum Growth Inhibitory Concentration MIC

Structure (SMILES) | MIC (Escherichia coli No. 29 [2]) | ED50 (preventive effect) [5] | ED50 (preventive effect) (Escherichia coli GN206 [6]) | ED50 (preventive effect) (Escherichia coli No. 29 [7]) | ED50 (preventive effect) [8] | MIC [10] | MIC (Escherichia coli 255/S-1) | MIC (Escherichia coli 255) | MIC [16] | MIC [19] | survival (ICR strain male mice) | LD50 at 336 h [20] | MIC [1, 25] | MIC (Escherichia coli GN206 [4]; [26]) | MIC [9, 27] | MIC [11, 28] | MIC [12, 29] | MIC [13, 30] | MIC [14, 31] | MIC [15, 32] | other results
CC(C)(ON=C(C(=O)NC1C(=O)N2C(C(=O)[O-])=C(C[n+]3ccccc3)CSC12)c1csc(N)n1)C(=O)O [CAZ, (6R, 7R)-7-[(Z)-2-(2-aminothiazol-4-yl)-2-(2-methylcarboxyisoprop;oxyimino)acetamido]-3-pyridinium-1-ylmethyl-ceph-3-em-4-carboxylate] | 0.2 µg/mL | 0.57 mg/mouse | 1.0 mg/mouse | 0.006 mg/mouse | 8 mg/mouse | 0.2 µg/mL (≈ 0.366 µM) | 0.39 µg/mL (≈ 0.714 µM) | 12.5 µg/mL (≈ 22.9 µM) | 0.2 µg/mL (≈ 0.366 µM) | 0.78 µg/mL (≈ 1.43 µM) | survived | ≥ 4000 mg/kg |  |  |  |  |  |  |  |  | MIC ([1]; Klebsiella pneumoniae): 0.2 µg/mL; MIC ([3]; Pseudomonas aeruginosa, GN10362): 1.56 µg/mL; MIC (Escherichia coli GN206 [4]; Escherichia coli, GN206): 1.56 µg/mL (≈ 2.85 µM); MIC (Escherichia coli GN206 [4]; Escherichia coli, GN206, read-out: Minimum Growth Inhibitory Concentration MIC): 1.56 µg/mL (≈ 2.85 µM); MIC ([9]; Bacillus subtilis, ATCC6633, read-out: Minimum Growth Inhibitory Concentration MIC): 3.13 µg/mL (≈ 5.73 µM); MIC ([11]; Staphylococcus epidermidis, ATCC14990, read-out: Minimum Growth Inhibitory Concentration MIC): 3.13 µg/mL (≈ 5.73 µM); MIC [12, 24]: 25 µg/mL (≈ 45.7 µM); MIC [13, 24]: 0.78 µg/mL (≈ 1.43 µM); MIC ([14]; Pseudomonas aeruginosa, IAM1007, read-out: Minimum Growth Inhibitory Concentration MIC): 0.78 µg/mL (≈ 1.43 µM); MIC ([15]; Staphylococcus aureus): 3.13 µg/mL (≈ 5.73 µM); MIC ([17]; Pseudomonas aeruginosa, M0148, read-out: Minimum Growth Inhibitory Concentration MIC): 1.56 µg/mL (≈ 2.85 µM); MIC [18]: 25 µg/mL (≈ 45.7 µM)
CC[n+]1ccc(SCC2=C(C(=O)[O-])N3C(=O)[C@@H](NC(=O)/C(=N\O[C@@H](C)C(=O)O)c4csc(N)n4)[C@H]3SC2)cc1 [Compound I, (6R, 7R)-7-[(Z)-2-(2-aminothiazol-4-yl)-2-{(1S)-carboxyethoxyimino}acetamido]-3-(1-ethylpyridinium-4-ylthiomethyl)-ceph-3-em-4-carboxylate monosodium salt] | 0.1 µg/mL | 0.33 mg/mouse | 0.36 mg/mouse | 0.002 mg/mouse | 4.5 mg/mouse | 0.2 µg/mL | 0.1 µg/mL | 0.2 µg/mL | 0.05 µg/mL | 0.78 µg/mL | survived | ≥ 4000 mg/kg | 0.05 µg/mL | 0.1 µg/mL | 3.13 µg/mL | 3.13 µg/mL | 6.25 µg/mL | 0.39 µg/mL | 0.78 µg/mL | 1.56 µg/mL | MIC ([3]; Pseudomonas aeruginosa GN10362, Table 2, read-out: MIC): 1.56 µg/mL; MIC (Escherichia coli GN206 [4]; Escherichia coli GN206, Table 2, read-out: MIC): 0.2 µg/mL; durability in a concentration to exhibit the antibacterial activity (in words) [21]: sufficient durability in a concentration to exhibit the antibacterial activity; transfer into blood and organ (in words) [21]: rapidly transferred into blood and organ; MIC [17, 33]: 0.78 µg/mL; effect to prevent infections compared to the known compounds (in words) [22]: equal to or superior to them; distribution in sensitivity to clinically isolated strains (in words) [23]: much more excellent antibacterial activity over a wide range; toxicity (in words) (ICR strain male mice; various animal tests): low toxicity
CON=C(C(=O)NC1C(=O)N2C(C(=O)[O-])=C(C[n+]3cccc4c3CCC4)CSC12)c1csc(N)n1 [HR-810, (6R, 7R)-7-[(Z)-2-(2-aminothiazol-4-yl)-2-(methoxyimino)acetamido]-3-cyclopentenopyridinium-1-ylmethyl-ceph-3-em-4-carboxylate] | 0.05 µg/mL | 1.3 mg/mouse |  | 0.006 mg/mouse |  | 0.78 µg/mL (≈ 1.52 µM) | 0.05 µg/mL (≈ 0.0972 µM) | 0.2 µg/mL (≈ 0.389 µM) | 0.1 µg/mL (≈ 0.194 µM) | 3.13 µg/mL (≈ 6.08 µM) | survived | ≥ 4000 mg/kg | 0.05 µg/mL | < 0.025 µg/mL | 0.1 µg/mL (≈ 0.194 µM) | 0.39 µg/mL (≈ 0.758 µM) | 0.78 µg/mL (≈ 1.52 µM) | 0.05 µg/mL (≈ 0.0972 µM) | 12.5 µg/mL (≈ 24.3 µM) | 0.39 µg/mL (≈ 0.758 µM) | MIC [17, 33]: 12.5 µg/mL (≈ 24.3 µM)

— US4810702A, “Antibacterial agent for mammal use comprising cephalosporin derivatives as an effective ingredient” (Meiji Seika Kaisha, Ltd., priority 1986, dated 1989)
